Series [1] relates to MC38-hFolRα tumors. Briefly: MC38-hFOLR1 tumor model, combination with Avelumab. It is filed as in vivo. Particulars: ADC Molecule 4 10 or 15 mg/kg once IV; Avelumab q3dx3 intraperitoneally.
In series [2] the test system is cell line tested. The experiment in a line: Free drug in vitro cytotoxicity, various cell lines. The format is cell-based.
For series [3], the system named is Igrov1 cells. Briefly: In vitro cell killing (ADCs, free drugs), Igrov1 cells. It is filed as cell-based.
Method: The candidate antibody-drug conjugates were tested in cell killing on FolRα-expressing cells, including KB, Igrov1, HeLa and JEG3.
Series [4] deals with A549 cells. The experiment in a line: In vitro cell killing (ADCs, free drugs), FolRα-negative A549 cells. The format is cell-based.
Excerpt: Cytotoxic activities of the two ADC molecules were compared in the presence of excess un-conjugated “naked” antibody as competitior, on cells that were positive FolRα expression (Igrov1 and OVCAR3) and on cells that were negative for FolRα expression (A549).
Series [5] can be described thus: Pharmacokinetics of free drugs in Sprague-Dawley rats. It is filed as in vivo, rat. The settings on record: for C0 / Cmax / AUC(0-t): rat, blood, female Sprague-Dawley rats; for AUC(0-t): read-out: AUC0-last ± SE. On the procedure:
(§1) Blood samples were collected at […], 1, 2, 8, 24, 32, 48, and 72 hour post-dose. Levels of free drug (I) and (II) were measured by LC-MS/MS and non-compartmental pharmacokinetic analysis was conducted using Phoenix WinNonlin Version 6.4 (Pharsight Corporation). The PK of free drug (I) could not be estimated due to the fact that concentrations of (I) increased from 2 to 8 hours and were undetectable thereafter.

The subject of series [6] is MES-SA cells. The experiment in a line: Free drug cell killing on parental MES-SA cells. It is filed as cell-based. Particulars: MEA-SA (parental) cells, No GF120918. From the text:
(§2) To evaluate if free drug (I) is specifically a substrate of P-glycoprotein (PgP), which is responsible for cisplatin-resistance in some of the ovarian cancer cell lines (Stordal et al. 2012. PLoS One 7(7)), the free drug cell killing activities were investigated on PgP over-expressing MES-SA/MX2 cell line and the parental MES-SA cells. The cell killing activity of free drug (I), free drug (II) and a control free drug (MMAE, designated “III”) on the PgP-overexpressing MES-SA/MX2 cells were reduced by different levels compared to their activity on parental MES-SA cells. The MES-SA/MX2 cells were also treated with PgP inhibitor GF120918 (5 μM) to further investigate if the observed cell killing reduction is contributed by the presence of PgP on the cell surface.

Series [7] concerns MES-SA/MX2 cells (PgP over-expressing). The experiment in a line: Free drug cell killing on PgP over-expressing MES-SA/MX2 cells with or without PgP inhibitor GF120918. The format is cell-based.
Excerpt: as §2

In series [8] the test system is P-glycoprotein (PgP). The description is as above. It is filed as cell-based. The settings on record: human, MES-SA/MX2 cells (PgP over-expressing).
Excerpt: as §2

Series [9] is described as follows: Body weight of rats given free drugs. The format is in vivo, rat. Particulars: free drug (I) 0.4 and 1 mg/kg; free drug (II) 0.4 mg/kg; IV bolus. On the procedure: as §1, with “To assess the pharmacokinetic profile of free drug (I), female Sprague-Dawley rats (mean body weight 250 g) were given either a 0.4 mg/kg or 1 mg/kg dose by IV bolus administration (N=three animal per dose level) via an indwelling jugular vein catheter. Blood” for “Blood”

[10] abbreviates: MEA-SA/MX2 cells (PgP over-expressing), No GF120918.

Like-named read-outs stand apart in the source and are kept apart here.

For Avelumab, the initial tumor response result in series [1] is given as “tumor stasis until approximately day 7”.
Turning to `CN[C@H](C(=O)N[C@H](C(=O)N(C)[C@H](/C=C(\C)C(=O)O)C(C)C)C(C)(C)C)C(C)(C)c1cccc(N)c1` [free drug (I)], the EC50 in series [2] (depending on the cell line tested, read-out: cytotoxic activity in vitro EC50) was 0.5 to 20 nM; in [3] (Homo sapiens, IGROV-1), 2.4 nM; in series [4] (Homo sapiens, A549), 11 nM; in series [6] (Homo sapiens, MES-SA) it was 6 nM; in [8] (with GF120918 (5 μM), MEA-SA/MX2 cells, with PgP inhibitor GF120918 (5 μM)), 6.4 nM; in series [8] (setting [10]), 50 nM. In series [2] (in words), the “cytotoxic activity of released free drugs” value is listed as “comparable cytotoxic activity”. For the same molecule, the Span worked out at 92% in [3] (Igrov1 cells, Table 26); 81% in [4] (A549 cells, Table 26, NK = No Killing); 100% in series [6]; 100% in series [7] (setting [10]); 99% in [7] (MEA-SA/MX2 cells, with PgP inhibitor GF120918 (5 μM)). In series [5] (0.4 or 1 mg/kg IV bolus, data not shown), the “plasma level of free drug after dosing” value is listed as “undetectable at 24 hours post dose”. For the same molecule, in series [5] (IV bolus), the “clearance relative to the other free drug” value is “more rapid than that of free drug (II)”. For the same molecule, in [5] (Table 28), the “PK of free drug (I) in rat vs. free drug (II)” value is reported as “Free drug (I) has faster clearance”. In addition, the C0 in series [5] (IV bolus, dose level 0.1 mg/kg) was found to be 6.81 ng/mL; in series [5] (IV bolus, dose level 0.4 mg/kg), 15.5 ng/mL. In addition, the Cmax in [5] (IV bolus, dose level 0.1 mg/kg) amounted to 5.82 ± 0.69 ng/mL; in series [5] (IV bolus, dose level 0.4 mg/kg) it was 12.8 ± 2.1 ng/mL. In addition, the AUC(0-t) worked out at 11 ± 2.1 ng·h/mL in [5] (IV bolus, dose level 0.1 mg/kg) and 23.9 ± 2.6 ng·h/mL in [5] (IV bolus, dose level 0.4 mg/kg). Further, the “change in cell killing EC50 in the presence and absence of PgP inhibitor GF120918” value in [7] (GF120918 5 μM) stood at 8 fold. Moreover, the “body weight of the animals” value in [9] was “did not have an effect on the body weight”.
